Test results from the NIST ThermoML archive (doi:10.1016/j.jct.2009.02.007).

Tests used:
[1] = 101.33 kPa, Liquid, Vibrating tube method
[2] = xn = mol fraction of the nth substance listed; settings: 101 kPa, Liquid, Vibrating tube method

CCCCn1cc[n+](C)c1.F[B-](F)(F)F [1-butyl-3-methylimidazolium tetrafluoroborate]
[1]
Settings	mass density [kg/m3]
298.15 K	1211.03
303.15 K	1197.45
308.15 K	1194.6
313.15 K	1190.44

O=Cc1ccccc1 [benzaldehyde]
[1]
Settings	mass density [kg/m3]
298.15 K	1044.2
303.15 K	1040.21
308.15 K	1036.15
313.15 K	1032.15

O=Cc1ccccc1 [benzaldehyde] + CCCCn1cc[n+](C)c1.F[B-](F)(F)F
mass density [kg/m3], [2]
Settings	x2 = 0.1001	x2 = 0.1998	x2 = 0.2997	x2 = 0.4	x2 = 0.4999	x2 = 0.5998	x2 = 0.6999	x2 = 0.7971	x2 = 0.8991
298.15 K	1078.64	1105.45	1127.3	1145.56	1160.76	1173.77	1184.7	1193.8	1202.44
303.15 K	1072.78	1098.6	1119.46	1136.76	1151.14	1163.4	1173.86	1182.59	1190.51
308.15 K	1068.6	1094.81	1116.11	1133.67	1148.32	1160.74	1171.52	1180.59	1188.53
313.15 K	1064.7	1090.93	1112.3	1129.92	1144.5	1156.92	1167.64	1176.6	1184.48
